Common to all, as to type: cell-based, murine
Series [1] is described as follows: MTT assay for cell viability in RAW 264.7 macrophages. As to conditions: mouse, murine RAW 264.7 macrophages, mean ± SD of three experiments. On the procedure:
(§1) Before screening the PGE2 and NO production inhibitory effects of the compounds, the compounds’ cytotoxicity was evaluated at 1 and 10 μM concentrations to make sure that the tested concentrations are safe enough and non-cytotoxic to avoid misleading results. All compounds were non-cytotoxic at 1 μM concentration, while by increasing concentration to 10 μM, all the target compounds except 1f, 1k, and 1m started showing cytotoxicity. […] The piperidinyl and the morpholino moieties seem to be unfavorable to avoid cytotoxicity in this series of compounds. page 9: Biological evaluation Cell culture and sample treatment, nitrite determination, PGE2 assay, and MTT assay for cell viability have been carried out following the reported procedures [Bioorg. Med. Chem. Lett. 2014, 24, 571 & Eur. J. Pharmacol. 2008, 584, 175]. Western blot RAW 264.7 macrophage cells were re-suspended in PRO-PREPTM protein extraction solution (Intron Biotechnology, Seoul, Korea) and incubated with 20 min at 4 °C. The cell debris was removed by microcentrifugation, and the supernatants were quickly frozen. The protein concentration was determined using the Bio-Rad protein assay reagent according to the manufacture’s instruction. Cellular proteins were electroblotted onto a PVDF membrane following separation on 8-12% SDS-polyacrylamide gel electrophoresis. The immunoblot was incubated with blocking solution (5% skimmed milk) at room temperature for 1 h, followed by incubation overnight with a primary antibody at 4 °C. The blots were washed four times with a Tween 20/Tris-buffered saline (T/TBS) and incubated with a 1:2000 dilution of horseradish peroxidase-conjugated secondary antibody for 2 h at room temperature. The blots were again washed three times with T/TBS, and then developed by enhanced chemiluminescence (GE healthcare, WI, USA). Page 9 of 55
Background: Tetrazolium dyes change colour on reduction, which living cells bring about.

Series [2] relates to LPS-induced PGE2 production. Briefly: Inhibition of LPS-induced PGE2 production in RAW 264.7 macrophages. As to conditions: for inhibition of PGE2 production (in words): 2.5, 5, 10 μM. How it is done:
(§2) Upon confirming the non-cytotoxicity of 10 μM concentration of these three derivatives against murine RAW 264.7 macrophages induced by LPS, compounds 1f, 1k, and 1m were tested for inhibitory effect against LPS-induced PGE2 production together with checking their cell viability. […] The fluorine atom can also add some more merits such as formation of an additional hydrogen bond with a hydrogen bond donor in the target protein and stronger hydrophobic interaction by fluorophenyl compared with unsubstituted phenyl. […] Moreover, 1f and 1m were evaluated at 1 and 10 μM for inhibitory effects on LPS-induced NO production.
(§3) Cell culture and sample treatment, nitrite determination, PGE2 assay, and MTT assay for cell
(§4) viability have been carried out following the reported procedures [Bioorg. Med. Chem. Lett. […]

The test system of series [3] is RAW 264.7 macrophages. Briefly: MTT assay for cell viability in RAW 264.7 macrophages. As to conditions: 2.5, 5, 10 μM; LPS-induced RAW 264.7 macrophages.
Series [4] relates to RAW 264.7 macrophages. The description is as above. As to conditions: 10 μM; RAW 264.7 macrophages. On the procedure:
as §1

Series [5] deals with LPS-induced NO production. Briefly: Inhibition of LPS-induced NO production (nitrite determination) in RAW 264.7 cells. As to conditions: LPS-induced RAW 264.7 cells; for inhibition at 1 µM / inhibition at 10 µM: Mus musculus, read-out: Inhibition Rate (%) of NO production; for inhibition at 1 µM: RAW264.7, 1 μM; for inhibition at 10 µM: RAW264.7, 10 μM. How it is done: as §2, §3, §4

The subject of series [6] is phosphorylation of p38. Nature of the series: Western blot of p-p38 in LPS-induced RAW 264.7 macrophages. On the procedure:
(§5) Furthermore, the most promising compound 1m was chosen for a more extensive investigation of its molecular mechanism(s) of action. It was tested for inhibitory effects on COX-2 and iNOS protein expressions (Figure 4).
(§6) Cell culture and sample treatment, nitrite determination, PGE2 assay, and MTT assay for cell viability have been carried out following the reported procedures [Bioorg. Med. Chem. Lett.
(§7) RAW 264.7 macrophage cells were re-suspended in PRO-PREPTM protein extraction solution (Intron Biotechnology, Seoul, Korea) and incubated with 20 min at 4 °C. The cell debris was removed by microcentrifugation, and the supernatants were quickly frozen. The protein concentration was determined using the Bio-Rad protein assay reagent according to the manufacture’s instruction. Cellular proteins were electroblotted onto a PVDF membrane following separation on 8-12% SDS-polyacrylamide gel electrophoresis. The immunoblot was incubated with blocking solution (5% skimmed milk) at room temperature for 1 h, followed by incubation overnight with a primary antibody at 4 °C. The blots were washed four times with a Tween 20/Tris-buffered saline (T/TBS) and incubated with a 1:2000 dilution of horseradish peroxidase-conjugated secondary antibody for 2 h at room temperature. The blots were again washed three times with T/TBS, and then developed by enhanced chemiluminescence (GE
In general terms: In western blotting, separated proteins are transferred to a membrane and probed.

Series [7] concerns iNOS protein expression. Nature of the series: Western blot of iNOS protein expression in LPS-induced RAW 264.7 macrophages. As to conditions: especially at 10 µM. How it is done:
as §5, §6, §7

The subject of series [8] is COX-2 protein expression. Nature of the series: Western blot of COX-2 protein expression in LPS-induced RAW 264.7 macrophages. As to conditions: especially at 10 µM. How it is done: as §5, §6, §7
Where [9] appears, read: LPS-induced RAW 264.7 macrophages.
Setting [10] is: Mus musculus, RAW264.7, LPS-induced RAW 264.7 macrophages.

As usually defined, the viability is a read-out of living cells in per cent, often relative to untreated cells. `COc1cc(-c2nn(-c3cccc(NC(=O)CN4CCCCC4)c3)cc2-c2ccncc2)ccc1Cl` [Compound 1a]: in series [1], the viability at 1 µM was determined as 99 ± 5.9% and the viability at 10 µM was determined as 10 ± 1.2%.

On to `COc1cc(-c2nn(-c3cccc(NC(=O)CN4CCOCC4)c3)cc2-c2ccncc2)ccc1Cl` [Compound 1b], for which, in series [1], the viability at 1 µM stood at 92 ± 4.5% and the viability at 10 µM was found to be 65 ± 2.8%.

As for `COc1cc(-c2nn(-c3cccc(NC(=O)CN4CCN(C)CC4)c3)cc2-c2ccncc2)ccc1Cl` [Compound 1c], in series [1], the viability at 1 µM was found to be 78 ± 3.3% and the viability at 10 µM is 5 ± 0.8%.

Regarding `CCN1CCN(CC(=O)Nc2cccc(-n3cc(-c4ccncc4)c(-c4ccc(Cl)c(OC)c4)n3)c2)CC1` [Compound 1d], in series [1], the viability at 1 µM was 75 ± 2.9% and the viability at 10 µM is 3 ± 0.4%.

Turning to `COc1cc(-c2nn(-c3cccc(NC(=O)CN4CCN(c5ccccc5)CC4)c3)cc2-c2ccncc2)ccc1Cl` [Compound 1e], in series [1], the viability at 1 µM came to 87 ± 4.1% and the viability at 10 µM is 65 ± 4.1%.

One may read the IC50 as the concentration at which inhibition is half-maximal. A higher IC50 goes with a need for much substance. One may read the inhibition as how much of the control response was suppressed. With `COc1cc(-c2nn(-c3cccc(NC(=O)CN4CCN(Cc5ccccc5)CC4)c3)cc2-c2ccncc2)ccc1Cl` [Compound 1f], in series [2] (setting [9]), the “inhibition of PGE2 production (in words)” value is “good inhibition values” and the IC50 came out at 7.1 µM. In series [2] (setting [10]), this compound had an IC50 of 7.6 µM and an inhibition at 10 µM of 65.4%. In addition, in series [2] (Mus musculus, RAW264.7, 5 μM, LPS-induced RAW 264.7 macrophages), testing at 5 µM gave an inhibition of 37.4%. Besides, in series [3], the “cytotoxicity (in words), LPS-induced RAW 264.7 cell viability” value is reported as “no cytotoxicity”. Also, the “cytotoxicity (in words)” value in series [4] is listed as “non-cytotoxic”. For the same compound, in series [1], the viability at 1 µM worked out at 66 ± 1.8% and the viability at 10 µM turned out to be 107 ± 8.5%. The “Inhibition Rate (%) of NO production” value in series [5] (10 μM) was found to be 11.06 ± 1.5%. Moreover, in series [5], the inhibition at 1 µM came out at 0% and the inhibition at 10 µM turned out to be 11.6%.

For the compound `COc1cc(-c2nn(-c3cccc(NC(=O)CCN4CCCCC4)c3)cc2-c2ccncc2)ccc1Cl` [Compound 1g], in series [1], the viability at 1 µM stood at 87 ± 3.8% and the viability at 10 µM was 5 ± 1.1%.

In the case of `COc1cc(-c2nn(-c3cccc(NC(=O)CCN4CCOCC4)c3)cc2-c2ccncc2)ccc1Cl` [Compound 1h], in series [1], the viability at 1 µM came to 99 ± 2.8% and the viability at 10 µM came out at 75 ± 1.7%.

With `COc1cc(-c2nn(-c3cccc(NC(=O)CCN4CCN(C)CC4)c3)cc2-c2ccncc2)ccc1Cl` [Compound 1i], in series [1], the viability at 1 µM was found to be 99 ± 3.4% and the viability at 10 µM came out at 5 ± 1.8%.

As for `CCN1CCN(CCC(=O)Nc2cccc(-n3cc(-c4ccncc4)c(-c4ccc(Cl)c(OC)c4)n3)c2)CC1` [Compound 1j], in series [1], the viability at 1 µM is 98 ± 3.1% and the viability at 10 µM stood at 5 ± 0.8%.

As to `COc1cc(-c2nn(-c3cccc(NC(=O)CCN4CCN(c5ccccc5)CC4)c3)cc2-c2ccncc2)ccc1Cl` [Compound 1k], in series [2] (setting [9]), the “inhibition of PGE2 production (in words)” value is “good inhibition values”. In addition, the “cytotoxicity (in words), LPS-induced RAW 264.7 cell viability” value in series [3] was “no cytotoxicity”. The “cytotoxicity (in words)” value in series [4] is on record as “non-cytotoxic”. Moreover, in series [1], the viability at 1 µM came out at 89 ± 2.8% and the viability at 10 µM worked out at 112 ± 7.6%.

With `COc1cc(-c2nn(-c3cccc(NC(=O)CCN4CCN(Cc5ccccc5)CC4)c3)cc2-c2ccncc2)ccc1Cl` [Compound 1l], in series [1], the viability at 1 µM is 86 ± 3.7% and the viability at 10 µM amounted to 34 ± 1.1%.

Turning to `COc1cc(-c2nn(-c3cccc(NC(=O)CCN4CCN(Cc5ccc(F)cc5)CC4)c3)cc2-c2ccncc2)ccc1Cl` [Compound 1m], in series [2] (setting [9]), the “inhibition of PGE2 production (in words)” value is reported as “good inhibition values”. Besides, in series [2] (setting [10]), the IC50 was found to be 1.1 µM and the inhibition at 10 µM came out at 84.9%. The inhibition at 2.5 µM in series [2] (Mus musculus, RAW264.7, 2.5 μM, LPS-induced RAW 264.7 macrophages) came out at 67%. Further, in series [3], the “cytotoxicity (in words), LPS-induced RAW 264.7 cell viability” value was “no cytotoxicity”. In series [6], the “effect on phosphorylation of p38 (in words)” value is given as “markedly suppressed”. Moreover, the “cytotoxicity (in words)” value in series [4] is listed as “non-cytotoxic”. In addition, in series [1], the viability at 1 µM was found to be 90 ± 4.1% and the viability at 10 µM worked out at 97 ± 3.9%. Further, the “effect on iNOS protein expression (in words)” value in series [7] was “concentration-dependent inhibitory effect”. Moreover, the “effect on COX-2 protein expression (in words)” value in series [8] is recorded as “concentration-dependent inhibitory effect”. Further, the “Inhibition Rate (%) of NO production” value in series [5] (10 μM) is listed as 37.19 ± 3.4%. In series [5], the inhibition at 1 µM amounted to 0% and the inhibition at 10 µM was 37%.

As to `CC(=N)NCCCC[C@H](N)C(=O)O` [L-NIL, reference compound], the “Inhibition Rate (%) of NO production” value in series [5] (1 μM) worked out at 3.9 ± 2.1%; in series [5] (10 μM), 31.32 ± 2.9%.

The record behind these values is article PMC8587869, “Evaluation of the Inhibitory Effects of Pyridylpyrazole Derivatives on LPS-Induced PGE2 Productions and Nitric Oxide in Murine RAW 264.7 Macrophages” (Molecules, 2021).
